Data published in patent US20250073248A1, “BIORESORBABLE CATIONIC STEROIDAL ANTIMICROBIAL COMPOUNDS WITH GLYCERIDE LINKAGES” (BRIGHAM YOUNG UNIVERSITY, priority 2023, published 2025).
In brackets after ≈: the same amount, converted by molar mass.

Key:
Candida albicans (CA) = assay: MIC and MFC, broth microdilution, CA (Table 1); format: cell-based; details: Candida albicans
Source text: To investigate the antimicrobial impact of structural variance in the novel bioresorbable CSA compounds disclosed herein,Pseudomonas aeruginosa 01 (PA01), methicillin-resistant Staphylococcus aureus (MRSA), and Candida albicans (CA) were selected, representing Gram-negative bacterial, Gram-positive bacterial, and fungal pathogens of high or critical priority on the world health organization's priority lists for bacteria and fungi. Earlier applications of CSA compounds have focused on preventing medical device infections, and all three strains are commonly found in colonized implants, making efficacy against these pathogens an important indicator of future applicability.
(§1) All compounds were screened against these pathogens to determine their minimum inhibitory concentration (MIC), minimum bactericidal concentration (MBC), and minimum fungicidal concentration (MFC) using a broth microdilution method. […] Of these three, only CSA-4110 was similarly active against PA01and CA, inhibiting growth at 8 μg/mL.

MRSA ATCC BAA-42 [1] = assay: MIC/MBC of CSA-4110, Gram positive bacteria (Table 2); format: cell-based; details: Staphylococcus aureus
Procedure: as §1
(§2) CSA-4110 was evaluated further against a broader range of bacterial and fungal strains. Acinetobacter baumannii and several isolates of Staphylococcus aureus, Klebsiella pneumoniae, and Candida auris were selected, further broadening the coverage of high and critical priority pathogens. Streptococcus uberis, Staphylococcus pseudintermedius, Proteus mirabilis, and Escherichia coli were also screened to obtain a more complete efficacy profile. […] For comparison, previous work established the MICs of CSA-131 against strains of Staphylococcus aureus, Pseudomonas aeruginosa, and Candida albicans at 0.5-2 μg/mL

S. aureus ATCC 25923 = assay: as above; format: cell-based; details: Staphylococcus aureus, ATCC25923
Procedure: as §1, §2

S. aureus ATCC 27734 = assay: as above; format: cell-based; details: Staphylococcus aureus, ATCC27734
Procedure: as §1, §2

S. aureus ATCC 6538 = assay: as above; format: cell-based; details: Staphylococcus aureus, ATCC6538
Procedure: as §1, §2

[2] = system: S. psuedintermedius ATCC 49444; assay: as above; format: cell-based; details: Staphylococcus pseudintermedius, ATCC49444
Procedure: as §1, §2

S. uberis ATCC 27958 = assay: as above; format: cell-based; details: Streptococcus uberis, ATCC27958
Procedure: as §1, §2

A. baumannii ATCC 19606 = assay: MIC/MBC of CSA-4110, Gram negative bacteria (Table 3); format: cell-based; details: Acinetobacter baumannii, ATCC19606
Procedure: as §1, §2

E. coli ATCC 25922 = assay: as above; format: cell-based; details: Escherichia coli, ATCC25922
Procedure: as §1, §2

K. pneumoniae ARLG 1360 = assay: as above; format: cell-based; details: Klebsiella pneumoniae, ARLG1360
Procedure: as §1, §2

K. pneumoniae ATCC 13883 = assay: as above; format: cell-based; details: Klebsiella pneumoniae, ATCC13883
Procedure: as §1, §2

[3] = system: K. pneumoniae ATCC BAA-1706; assay: as above; format: cell-based; details: Klebsiella pneumoniae, ATCCBAA1706
Procedure: as §1, §2

[4] = system: P. aeruginosa 01 ATCC 47085; assay: as above; format: cell-based; details: Pseudomonas aeruginosa, ATCC47085
Procedure: as §1, §2

P. aeruginosa ATCC 27853 = assay: as above; format: cell-based; details: Pseudomonas aeruginosa, ATCC27853
Procedure: as §1, §2

C. albicans ATCC 90028 = assay: MIC/MFC of CSA-4110, fungi (Table 4); format: cell-based; details: Candida albicans, ATCC90028
Procedure: as §1, §2

C. auris CDC 382 = assay: MIC/MFC of CSA-4110, fungi (Table 4); format: cell-based, Candida auris; details: Candidozyma auris, CDC382
Procedure: as §1, §2

C. auris CDC 385 = assay: MIC/MFC of CSA-4110, fungi (Table 4); format: cell-based, Candida auris; details: Candidozyma auris, CDC385
Procedure: as §1, §2

C. auris CDC 386 = assay: MIC/MFC of CSA-4110, fungi (Table 4); format: cell-based, Candida auris; details: Candidozyma auris, CDC386
Procedure: as §1, §2

[5] = system: methicillin-resistant Staphylococcus aureus (MRSA); assay: Example 1 MIC/MBC (FIG. 1, FIG. 2), MRSA; format: cell-based
Procedure: The antimicrobial activities of CSA-4108, CSA-4110, CSA-4112, and CSA-4114 were determined relative to methicillin-resistant Staphylococcus aureus (MRSA), Pseudomonas aeruginosa (Pa), and Candida albicans 90028. The minimum inhibitory concentration (MIC) for CSA-4108, CSA-4110, CSA-4112, and CSA-4114 relative to the foregoing microbes is graphically reported in FIG. 1. The minimum bactericidal concentration (MBC) and minimum fungicidal concentration […] for CSA-4108, CSA-4110, CSA-4112, and CSA-4114 relative to the foregoing microbes are graphically reported in FIG. 2.

MRSA ATCC BAA-42 [6] = assay: Membrane depolarization, DiSC2(5) fluorescence; format: cell-based, Staphylococcus aureus; details: 8 μg/mL, added at 140 seconds, FIG. 5
Procedure: Reference is made to FIGS. 4 and 5. […] CSA-131 or CSA-4110 was added at 140 second to achieve 8 μg/mL after addition.
Antimicrobial peptides (AMPs) and CSA compounds are known to permeabilize bacterial membranes. For bacterial survival, the cytoplasmic membrane must be polarized. Depolarization of this membrane prevents ATP synthesis and leads to cell death. The dye 3,3′-diethylthiadicarbocyanine iodide (DiSC2(5)) can be used to measure cell membrane polarization. Fluorescence of this dye is decreased when it inserts into polarized membranes, and membrane depolarization results in substantial increases in fluorescence (see FIG. 5).
MRSA was used to explore the impact of CSA-4110 on membrane depolarization and compared results to those with ceragenin CSA-131. […] Fluorescence was monitored over time after addition of CSA-4110 or CSA-131. which incorporated into cellular membranes.

Work on CCCCCCCCCC(=O)OCC(O)COC(=O)CC[C@@H](C)[C@H]1CC[C@H]2[C@@H]3[C@H](OC(=O)CCN)C[C@@H]4C[C@H](OC(=O)CCN)CC[C@]4(C)[C@H]3C[C@H](OC(=O)CCN)[C@]12C (stereo partly drawn) [CSA-4110] yielded an MBC (Candida albicans (CA); MFC, value in parentheses) of 16 µg/mL (≈ 18.8 µM), an MIC (Candida albicans (CA); first value of cell) of 8 µg/mL (≈ 9.41 µM) and an MBC (MRSA ATCC BAA-42 [1]) of 2 µg/mL. The MIC (MRSA ATCC BAA-42 [1]) was 2 µg/mL, the MBC (S. aureus ATCC 25923) was 8 µg/mL and the MIC (S. aureus ATCC 25923) was 4 µg/mL. It also gave an MBC (S. aureus ATCC 27734) of 4 µg/mL, an MIC (S. aureus ATCC 27734) of 4 µg/mL and an MBC (S. aureus ATCC 6538) of 8 µg/mL. For the same compound, the MIC (S. aureus ATCC 6538) was 4 µg/mL, the MBC [2] was 4 µg/mL and the MIC [2] was 4 µg/mL. It also gave an MBC (S. uberis ATCC 27958) of 4 µg/mL, an MIC (S. uberis ATCC 27958) of 2 µg/mL and an MBC (A. baumannii ATCC 19606) of 4 µg/mL. It also gave an MIC (A. baumannii ATCC 19606) of 4 µg/mL, an MBC (E. coli ATCC 25922) of 4 µg/mL and an MIC (E. coli ATCC 25922) of 4 µg/mL. For the same compound, the MBC (K. pneumoniae ARLG 1360) was 8 µg/mL, the MIC (K. pneumoniae ARLG 1360) was 8 µg/mL and the MBC (K. pneumoniae ATCC 13883) was 2 µg/mL. It also gave an MIC (K. pneumoniae ATCC 13883) of 2 µg/mL, an MBC [3] of 4 µg/mL and an MIC [3] of 4 µg/mL. For the same compound, the MBC [4] was 8 µg/mL, the MIC [4] was 4 µg/mL and the MBC (P. aeruginosa ATCC 27853) was 8 µg/mL. For the same compound, the MIC (P. aeruginosa ATCC 27853) was 4 µg/mL, the MBC (C. albicans ATCC 90028) was 16 µg/mL (≈ 18.8 µM) and the MIC (C. albicans ATCC 90028) was 4 µg/mL (≈ 4.71 µM). For the same compound, the MBC (C. auris CDC 382) was 16 µg/mL (≈ 18.8 µM), the MIC (C. auris CDC 382) was 8 µg/mL (≈ 9.41 µM) and the MBC (C. auris CDC 385) was 16 µg/mL (≈ 18.8 µM). The MIC (C. auris CDC 385) was 8 µg/mL (≈ 9.41 µM), the MBC (C. auris CDC 386) was 16 µg/mL (≈ 18.8 µM) and the MIC (C. auris CDC 386) was 8 µg/mL (≈ 9.41 µM). The “MBC (FIG. 2), ranking in words” value [5] was “lowest MBC and MFC”, the “MIC (FIG. 1), ranking in words” value [5] was “lowest MIC” and the “fluorescence of DiSC2(5) after addition (membrane depolarization)” value (MRSA ATCC BAA-42 [6]) was “rapid increase of fluorescence”.
